“And” between values parts separate entries of the source, which are not always exact repeats. Equal entries are not always repeated. Toxic doses and inconclusive results are not listed.
Test system: CD2F1 mice, L1210 leukemia sc, survival T/C
Test: NCI In Vivo Anticancer Drug Screen. Data for tumor model L1210 Leukemia (subcutaneous) in CD2F1 (CDF1) mice
Conditions: endpoint: median survival time, higher = longer survival
How it was run: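 Compound given to mice bearing transplantable tumor. Survival or tumor size then recorded. Result expressed relative to vehicle-dosed control group as T/C.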

[1] = dose: 108.0 mg/kg/injection, schedule: Q01DX Z (sc), vehicle: methylcellulose (MC)

c1ccc(CNc2ncnc3[nH]ncc23)cc1
T/C (dose: 8.4 mg/kg/injection, schedule: Q01DX Z (sc), vehicle: methylcellulose (MC)): 105 % of control | T/C (dose: 14.0 mg/kg/injection, schedule: Q01DX Z (sc), vehicle: methylcellulose (MC)): 100 % of control | T/C (dose: 23.0 mg/kg/injection, schedule: Q01DX Z (sc), vehicle: methylcellulose (MC)): 100 % of control | T/C (dose: 39.0 mg/kg/injection, schedule: Q01DX Z (sc), vehicle: methylcellulose (MC)): 100 % of control | T/C (dose: 65.0 mg/kg/injection, schedule: Q01DX Z (sc), vehicle: methylcellulose (MC)): 111 % of control | T/C [1]: 122 % of control

O=NN(CCCl)C(=O)NCCCl
T/C (dose: 0.25 mg/kg/injection, schedule: Q01DX009 (ip), vehicle: saline + alcohol): 108 % of control | T/C (dose: 0.25 mg/kg/injection, schedule: Q01DX009 (sc), vehicle: saline + alcohol): 100 % of control and 107 % of control | T/C (dose: 0.5 mg/kg/injection, schedule: Q01DX009 (ip), vehicle: saline + alcohol): 121 % of control | T/C (dose: 0.5 mg/kg/injection, schedule: Q01DX009 (sc), vehicle: saline + alcohol): 112 % of control and 98 % of control | T/C (dose: 0.88 mg/kg/injection, schedule: Q01DX009 (ip), vehicle: saline + alcohol): 121 % of control | T/C (dose: 0.9 mg/kg/injection, schedule: Q01DX009 (ip), vehicle: saline + alcohol): 112 % of control | T/C (dose: 1.0 mg/kg/injection, schedule: Q01DX009 (sc), vehicle: saline + alcohol): 108 % of control and 124 % of control | T/C (dose: 1.8 mg/kg/injection, schedule: Q01DX009 (ip), vehicle: saline + alcohol): 120 % of control | T/C (dose: 1.8 mg/kg/injection, schedule: Q01DX Z (sc), vehicle: saline): 243 % of control | T/C (dose: 2.0 mg/kg/injection, schedule: Q01DX009 (ip), vehicle: saline + alcohol): 159 % of control and 192 % of control | T/C (dose: 3.0 mg/kg/injection, schedule: Q01DX Z (sc), vehicle: saline): 512 % of control | T/C (dose: 4.0 mg/kg/injection, schedule: Q01DX009 (ip), vehicle: saline + alcohol): 187 % of control and 219 % of control | T/C (dose: 5.0 mg/kg/injection, schedule: Q01DX Z (sc), vehicle: saline): 300 % of control | T/C (dose: 5.0 mg/kg/injection, schedule: Q07DX Z (sc), vehicle: saline): 150 % of control | T/C (dose: 5.3 mg/kg/injection, schedule: Q01DX009 (sc), vehicle: saline + alcohol): 314 % of control | T/C (dose: 5.33 mg/kg/injection, schedule: Q01DX009 (ip), vehicle: saline + alcohol): 222 % of control | T/C (dose: 5.33 mg/kg/injection, schedule: Q01DX009 (sc), vehicle: saline + alcohol): 203 % of control | T/C (dose: 7.0 mg/kg/injection, schedule: Q01DX009 (ip), vehicle: saline + alcohol): 167 % of control and 184 % of control | T/C (dose: 8.0 mg/kg/injection, schedule: Q01DX009 (ip), vehicle: saline + alcohol): 179 % of control and 243 % of control | T/C (dose: 8.4 mg/kg/injection, schedule: Q01DX001 (sc), vehicle: saline): 212 % of control | T/C (dose: 8.4 mg/kg/injection, schedule: Q01DX017 (ip), vehicle: none): 333 % of control | T/C (dose: 8.4 mg/kg/injection, schedule: Q01DX017 (sc), vehicle: saline): 316 % of control | T/C (dose: 8.4 mg/kg/injection, schedule: Q01DX Z (sc), vehicle: saline): 256 % of control | T/C (dose: 8.4 mg/kg/injection, schedule: Q07DX Z (sc), vehicle: saline): 293 % of control | T/C (dose: 12.0 mg/kg/injection, schedule: Q01DX009 (sc), vehicle: saline + alcohol): 151 % of control and 205 % of control | T/C (dose: 14.0 mg/kg/injection, schedule: Q01DX001 (sc), vehicle: saline): 300 % of control | T/C (dose: 14.0 mg/kg/injection, schedule: Q01DX009 (ip), vehicle: saline + alcohol): 116 % of control | T/C (dose: 14.0 mg/kg/injection, schedule: Q01DX017 (ip), vehicle: none): 588 % of control | T/C (dose: 14.0 mg/kg/injection, schedule: Q01DX017 (sc), vehicle: saline): 388 % of control | T/C (dose: 14.0 mg/kg/injection, schedule: Q01DX Z (sc), vehicle: saline): 212 % of control | T/C (dose: 14.0 mg/kg/injection, schedule: Q07DX Z (sc), vehicle: saline): 600 % of control | T/C (dose: 16.0 mg/kg/injection, schedule: Q01DX009 (sc), vehicle: saline + alcohol): 160 % of control | T/C (dose: 23.0 mg/kg/injection, schedule: Q01DX001 (sc), vehicle: saline): 343 % of control | T/C (dose: 23.0 mg/kg/injection, schedule: Q01DX017 (ip), vehicle: none): 731 % of control | T/C (dose: 23.0 mg/kg/injection, schedule: Q01DX017 (sc), vehicle: saline): 733 % of control | T/C (dose: 23.0 mg/kg/injection, schedule: Q07DX Z (sc), vehicle: saline): 331 % of control | T/C (dose: 32.0 mg/kg/injection, schedule: Q01DX009 (ip), vehicle: saline + alcohol): 98 % of control | T/C (dose: 32.0 mg/kg/injection, schedule: Q01DX009 (sc), vehicle: saline + alcohol): 102 % of control and 124 % of control | T/C (dose: 39.0 mg/kg/injection, schedule: Q01DX001 (sc), vehicle: saline): 243 % of control | T/C (dose: 39.0 mg/kg/injection, schedule: Q01DX017 (ip), vehicle: none): 511 % of control | T/C (dose: 39.0 mg/kg/injection, schedule: Q01DX017 (sc), vehicle: saline): 500 % of control | T/C (dose: 39.0 mg/kg/injection, schedule: Q07DX Z (sc), vehicle: saline): 200 % of control | T/C (dose: 65.0 mg/kg/injection, schedule: Q01DX001 (sc), vehicle: saline): 162 % of control

S=P(N1CC1)(N1CC1)N1CC1
T/C (dose: 1.5 mg/kg/injection, schedule: Q01DX009 (ip), vehicle: water): 107 % of control | T/C (dose: 1.5 mg/kg/injection, schedule: Q01DX009 (sc), vehicle: water): 105 % of control | T/C (dose: 3.0 mg/kg/injection, schedule: Q01DX009 (ip), vehicle: water): 105 % of control | T/C (dose: 3.0 mg/kg/injection, schedule: Q01DX009 (sc), vehicle: saline): 121 % of control | T/C (dose: 3.0 mg/kg/injection, schedule: Q01DX009 (sc), vehicle: water): 101 % of control | T/C (dose: 6.0 mg/kg/injection, schedule: Q01DX009 (ip), vehicle: water): 121 % of control | T/C (dose: 6.0 mg/kg/injection, schedule: Q01DX009 (sc), vehicle: saline): 166 % of control and 176 % of control | T/C (dose: 6.0 mg/kg/injection, schedule: Q01DX009 (sc), vehicle: water): 122 % of control | T/C (dose: 24.0 mg/kg/injection, schedule: Q01DX009 (ip), vehicle: water): 194 % of control | T/C (dose: 24.0 mg/kg/injection, schedule: Q01DX009 (sc), vehicle: water): 157 % of control | T/C (dose: 12.0 micrograms/kg/injection, schedule: Q01DX009 (ip), vehicle: saline): 100 % of control | T/C (dose: 12.0 micrograms/kg/injection, schedule: Q01DX009 (sc), vehicle: saline): 107 % of control | T/C (dose: 25.0 micrograms/kg/injection, schedule: Q01DX009 (ip), vehicle: saline): 104 % of control | T/C (dose: 25.0 micrograms/kg/injection, schedule: Q01DX009 (sc), vehicle: saline): 98 % of control | T/C (dose: 50.0 micrograms/kg/injection, schedule: Q01DX009 (ip), vehicle: saline): 104 % of control | T/C (dose: 50.0 micrograms/kg/injection, schedule: Q01DX009 (sc), vehicle: saline): 100 % of control | T/C (dose: 100.0 micrograms/kg/injection, schedule: Q01DX009 (ip), vehicle: saline): 100 % of control | T/C (dose: 100.0 micrograms/kg/injection, schedule: Q01DX009 (sc), vehicle: saline): 98 % of control | T/C (dose: 200.0 micrograms/kg/injection, schedule: Q01DX009 (ip), vehicle: saline): 96 % of control | T/C (dose: 200.0 micrograms/kg/injection, schedule: Q01DX009 (sc), vehicle: saline): 102 % of control | T/C (dose: 400.0 micrograms/kg/injection, schedule: Q01DX009 (ip), vehicle: saline): 102 % of control | T/C (dose: 400.0 micrograms/kg/injection, schedule: Q01DX009 (sc), vehicle: saline): 102 % of control

COc1ccc2c(c1)-c1nn(CCCN(C)C)c3ccc([N+](=O)[O-])c(c13)N2
T/C (dose: 3.12 mg/kg/injection, schedule: Q01DX009 (ip), vehicle: water): 122 % of control | T/C (dose: 6.25 mg/kg/injection, schedule: Q01DX009 (ip), vehicle: water): 161 % of control | T/C (dose: 25.0 mg/kg/injection, schedule: Q01DX009 (ip), vehicle: water): 104 % of control

CCOC(=O)NP(=O)(N1CC1)N1CC1
T/C (dose: 14.0 mg/kg/injection, schedule: Q01DX Z (sc), vehicle: water): 172 % of control | T/C (dose: 23.0 mg/kg/injection, schedule: Q01DX Z (sc), vehicle: water): 161 % of control

Oc1cc(CN(CCCl)CCCl)c(O)cc1CN(CCCl)CCCl
T/C (dose: 23.4 mg/kg/injection, schedule: Q01DX Z (sc), vehicle: methylcellulose (MC)): 105 % of control | T/C (dose: 38.9 mg/kg/injection, schedule: Q01DX Z (sc), vehicle: methylcellulose (MC)): 110 % of control | T/C (dose: 64.8 mg/kg/injection, schedule: Q01DX Z (sc), vehicle: methylcellulose (MC)): 115 % of control | T/C [1]: 115 % of control | T/C (dose: 180.0 mg/kg/injection, schedule: Q01DX Z (sc), vehicle: methylcellulose (MC)): 105 % of control
